Tests used:
[1] = target: T1, Angiotensin-converting enzyme (Oryctolagus cuniculus, UniProt P12822); format: tissue-based, Lung;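 further: enzymatic inhibition of angiotensin-converting enzyme measured with FAPGG as the substrate; in other assays of this panel Not Active means under 50% inhibition at 10 µM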
T1 sequence (P12822 whole entry): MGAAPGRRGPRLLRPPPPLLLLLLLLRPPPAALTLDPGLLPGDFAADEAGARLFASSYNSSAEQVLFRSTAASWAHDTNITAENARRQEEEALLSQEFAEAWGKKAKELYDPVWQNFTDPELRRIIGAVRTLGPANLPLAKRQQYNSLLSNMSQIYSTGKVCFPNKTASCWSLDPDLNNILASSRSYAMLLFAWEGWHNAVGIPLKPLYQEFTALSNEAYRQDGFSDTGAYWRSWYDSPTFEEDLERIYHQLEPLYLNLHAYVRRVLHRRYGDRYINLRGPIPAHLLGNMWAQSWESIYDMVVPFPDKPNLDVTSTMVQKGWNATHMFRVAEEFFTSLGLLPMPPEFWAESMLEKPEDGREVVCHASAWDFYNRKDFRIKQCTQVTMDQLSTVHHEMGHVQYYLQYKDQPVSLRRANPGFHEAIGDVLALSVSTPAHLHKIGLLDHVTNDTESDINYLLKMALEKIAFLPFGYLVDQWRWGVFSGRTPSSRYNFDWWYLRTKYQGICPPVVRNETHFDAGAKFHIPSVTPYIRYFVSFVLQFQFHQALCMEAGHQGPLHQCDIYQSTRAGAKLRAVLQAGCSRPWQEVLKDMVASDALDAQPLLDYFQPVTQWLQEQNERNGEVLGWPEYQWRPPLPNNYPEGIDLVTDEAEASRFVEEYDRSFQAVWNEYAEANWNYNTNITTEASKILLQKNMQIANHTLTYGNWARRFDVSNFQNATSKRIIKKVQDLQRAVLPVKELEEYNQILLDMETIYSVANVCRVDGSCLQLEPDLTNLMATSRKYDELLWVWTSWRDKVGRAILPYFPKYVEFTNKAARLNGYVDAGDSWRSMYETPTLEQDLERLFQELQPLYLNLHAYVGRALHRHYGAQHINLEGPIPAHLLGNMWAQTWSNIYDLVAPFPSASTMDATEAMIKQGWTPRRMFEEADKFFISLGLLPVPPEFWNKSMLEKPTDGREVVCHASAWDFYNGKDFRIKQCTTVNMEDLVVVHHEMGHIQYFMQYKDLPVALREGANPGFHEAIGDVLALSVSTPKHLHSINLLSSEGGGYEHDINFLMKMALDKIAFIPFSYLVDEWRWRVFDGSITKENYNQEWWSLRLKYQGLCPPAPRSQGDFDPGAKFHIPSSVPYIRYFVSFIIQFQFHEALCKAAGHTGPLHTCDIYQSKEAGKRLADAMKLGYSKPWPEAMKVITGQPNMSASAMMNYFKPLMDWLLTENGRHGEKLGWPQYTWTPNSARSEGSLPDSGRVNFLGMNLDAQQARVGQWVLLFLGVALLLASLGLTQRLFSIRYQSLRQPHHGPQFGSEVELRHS

Thromboxane-A synthase = target: T2, Thromboxane-A synthase (Homo sapiens, UniProt P24557); test: biochemical; format: tissue-based, Platelet; conditions: platelet;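 further: enzyme inhibition assay with PGH2 supplied as substrate; in other assays of this panel Not Active means under 50% inhibition at 10 µM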
T2 sequence (P24557 whole entry): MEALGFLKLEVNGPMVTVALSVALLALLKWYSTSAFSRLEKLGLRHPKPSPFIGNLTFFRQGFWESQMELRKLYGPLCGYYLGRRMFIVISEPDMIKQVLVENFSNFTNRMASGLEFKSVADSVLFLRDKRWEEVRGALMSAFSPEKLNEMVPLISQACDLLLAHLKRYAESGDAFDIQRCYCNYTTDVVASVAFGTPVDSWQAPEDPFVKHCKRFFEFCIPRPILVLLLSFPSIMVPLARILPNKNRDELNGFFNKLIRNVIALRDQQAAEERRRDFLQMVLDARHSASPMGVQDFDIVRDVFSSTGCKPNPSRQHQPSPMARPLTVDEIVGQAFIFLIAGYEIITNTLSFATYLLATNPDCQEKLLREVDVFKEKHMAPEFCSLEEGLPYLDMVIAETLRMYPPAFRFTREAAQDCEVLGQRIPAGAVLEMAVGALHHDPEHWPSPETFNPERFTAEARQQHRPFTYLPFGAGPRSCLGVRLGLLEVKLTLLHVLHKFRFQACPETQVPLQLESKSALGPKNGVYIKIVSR

[2] = target: Protein phosphatase 3 catalytic subunit alpha (Homo sapiens, UniProt Q08209); parameters: species or system Escherichia coli;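 further: inhibition of calcineurin (PP2B) enzyme activity, measured with DiFMUP as the substrate; in other assays of this panel Not Active means under 50% inhibition at 10 µM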
Substance-K receptor = target: T3, Substance-K receptor (Homo sapiens, UniProt P21452); format: cell membranes, CHO, Membrane; conditions: cho; further: in other assays of this panel Not Active means under 50% inhibition at 10 µM
T3 sequence (P21452 whole entry): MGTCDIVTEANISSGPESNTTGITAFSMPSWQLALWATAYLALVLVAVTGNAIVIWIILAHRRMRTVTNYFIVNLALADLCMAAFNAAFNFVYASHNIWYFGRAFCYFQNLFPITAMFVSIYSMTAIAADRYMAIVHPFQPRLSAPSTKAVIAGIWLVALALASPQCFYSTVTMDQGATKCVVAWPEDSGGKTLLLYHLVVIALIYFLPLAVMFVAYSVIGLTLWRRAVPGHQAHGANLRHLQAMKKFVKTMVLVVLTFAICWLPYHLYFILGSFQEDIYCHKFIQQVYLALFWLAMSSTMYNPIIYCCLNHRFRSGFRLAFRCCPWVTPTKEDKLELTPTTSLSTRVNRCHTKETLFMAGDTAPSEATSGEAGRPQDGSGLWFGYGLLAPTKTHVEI

[3] = target: Voltage-gated inwardly rectifying potassium channel KCNH2 (Homo sapiens, UniProt Q12809); conditions: hek293; further: in other assays of this panel Not Active means under 50% inhibition at 10 µM
Chain of Voltage-gated inwardly rectifying potassium channel KCNH2 (Q12809 whole entry): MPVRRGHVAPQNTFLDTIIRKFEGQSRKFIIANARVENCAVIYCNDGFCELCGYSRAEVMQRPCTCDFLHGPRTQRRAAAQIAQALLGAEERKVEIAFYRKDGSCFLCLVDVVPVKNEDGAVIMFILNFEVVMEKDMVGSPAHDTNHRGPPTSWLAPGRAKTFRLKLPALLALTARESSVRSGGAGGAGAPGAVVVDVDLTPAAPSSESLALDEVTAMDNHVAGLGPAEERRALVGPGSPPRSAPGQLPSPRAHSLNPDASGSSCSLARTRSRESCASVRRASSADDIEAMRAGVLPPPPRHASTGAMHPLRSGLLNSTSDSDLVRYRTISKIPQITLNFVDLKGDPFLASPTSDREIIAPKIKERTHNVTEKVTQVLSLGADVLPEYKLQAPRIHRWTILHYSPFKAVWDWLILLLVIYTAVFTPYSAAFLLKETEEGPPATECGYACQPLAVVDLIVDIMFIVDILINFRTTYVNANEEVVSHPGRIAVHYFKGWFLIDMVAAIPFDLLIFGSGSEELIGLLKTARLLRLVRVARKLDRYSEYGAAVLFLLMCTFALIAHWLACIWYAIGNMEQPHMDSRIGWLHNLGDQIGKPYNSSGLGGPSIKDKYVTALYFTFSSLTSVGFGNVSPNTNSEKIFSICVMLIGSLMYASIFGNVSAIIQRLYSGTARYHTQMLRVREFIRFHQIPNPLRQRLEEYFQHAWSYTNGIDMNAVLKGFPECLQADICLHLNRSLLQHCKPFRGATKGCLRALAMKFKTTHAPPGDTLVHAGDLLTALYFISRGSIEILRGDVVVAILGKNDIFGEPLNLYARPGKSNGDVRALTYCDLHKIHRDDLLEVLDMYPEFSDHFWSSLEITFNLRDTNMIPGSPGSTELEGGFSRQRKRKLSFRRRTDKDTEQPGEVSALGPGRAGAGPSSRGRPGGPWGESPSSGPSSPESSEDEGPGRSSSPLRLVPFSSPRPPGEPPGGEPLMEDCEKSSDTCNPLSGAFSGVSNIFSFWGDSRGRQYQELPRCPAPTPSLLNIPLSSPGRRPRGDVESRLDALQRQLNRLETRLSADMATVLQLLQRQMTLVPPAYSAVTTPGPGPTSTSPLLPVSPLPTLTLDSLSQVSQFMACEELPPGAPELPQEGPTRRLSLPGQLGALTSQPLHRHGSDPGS

[4] = target: Beta-3 adrenergic receptor (Homo sapiens, UniProt P13945); test: DRUGMATRIX: Adrenergic beta3 radioligand binding (ligand: [125I] Cyanopindolol); format: cell membranes, HEK293, Membrane; conditions: hek293; Not Active = under 50% inhibition at 10 µM
Chain of Beta-3 adrenergic receptor (P13945 whole entry): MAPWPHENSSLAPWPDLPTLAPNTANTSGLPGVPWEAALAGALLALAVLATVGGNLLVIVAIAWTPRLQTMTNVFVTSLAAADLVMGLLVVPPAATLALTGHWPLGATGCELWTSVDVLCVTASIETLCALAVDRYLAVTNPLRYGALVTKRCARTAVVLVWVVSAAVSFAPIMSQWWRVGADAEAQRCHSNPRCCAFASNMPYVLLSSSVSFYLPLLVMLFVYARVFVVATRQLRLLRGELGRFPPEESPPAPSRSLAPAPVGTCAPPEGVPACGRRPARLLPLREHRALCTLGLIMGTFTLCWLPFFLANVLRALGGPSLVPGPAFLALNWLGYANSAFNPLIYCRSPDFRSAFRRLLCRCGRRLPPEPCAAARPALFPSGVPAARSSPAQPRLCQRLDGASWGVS

O=C(O)COc1ccc(C(=O)c2cccs2)c(Cl)c1Cl
Not Active: IC50 [1] | IC50 (Thromboxane-A synthase) | IC50 [2] | IC50 (Substance-K receptor) | IC50 [3] | Ki [3] | IC50 [4]

CN1[C@@H]2CC[C@H]1C[C@@H](OC(c1ccccc1)c1ccccc1)C2 [BENZTROPINE]
Not Active: IC50 [1] | IC50 (Thromboxane-A synthase) | IC50 [2] | IC50 (Substance-K receptor) | IC50 [3] | Ki [3] | IC50 [4]

ZIRCONIUM(IV) CHLORIDE
Not Active: IC50 [1] | Ki [1] | IC50 (Thromboxane-A synthase) | Ki (Thromboxane-A synthase) | IC50 [2] | Ki [2] | IC50 (Substance-K receptor) | Ki (Substance-K receptor) | IC50 [3] | Ki [3] | IC50 [4] | Ki [4]

Reference: ChEMBL document CHEMBL1909046, “DrugMatrix in vitro pharmacology data”
